From US20120189544A1, “GASTROINTESTINAL DISEASE OR DISORDER IMAGING AND TREATMENT” (SALK INSTITUTE FOR BIOLOGICAL STUDIES, priority 2009, published 2012)

How the values were obtained:
[1] = system: PTEN-deficient glioblastomas and metastatic renal cell carcinomas; settings: patients with PTEN-deficient glioblastomas and metastatic renal cell carcinomas; cited from earlier work
[2] = system: pre-existing GI polyps in Lkb1^+/− mice
Method: Mouse Colony Maintenance, Treatment Regimen and Polyp Measurement. Lkb1^+/+ and Lkb1^+/− mice, maintained on an FVB/N genetic background, were monitored for the development of gastrointestinal polyps. Mice with clinical signs of disease were euthanized and necropsied. The groups were vehicle treated or RAPA treated mice. […] Polyps were scored and total polyp burden was measured).
After two months of treatment, polyp size and number in each mouse were quantitated.

| Structure (SMILES) | clinical outcome [1] | reduction in the overall mass of polyps ([2]; Lkb1+/− mice treated vs untreated with rapamycin, two months) [%] | mean polyp burden (total polyp burden) ([2]; Lkb1+/− mice, 10 mg/kg rapamycin i.p., two months, n=10, VEH 9.6±5.5, p=0.00026) | mean polyp size ([2]; Lkb1+/− mice, n=10, VEH 4.4±0.8, p<0.0001) | mean polyp number ([2]; Lkb1+/− mice, visible polyps between 1 and 5 mm scored, n=10, VEH 5.3±1.8, p=0.00022) |
| --- | --- | --- | --- | --- | --- |
| CO[C@H]1C[C@@H]2CC[C@@H](C)[C@@](O)(O2)C(=O)C(=O)N2CCCC[C@H]2C(=O)O[C@H]([C@H](C)C[C@@H]2CC[C@@H](OC(=O)C(C)(CO)CO)[C@H](OC)C2)CC(=O)[C@H](C)/C=C(\C)[C@@H](O)[C@@H](OC)C(=O)[C@H](C)C[C@H](C)/C=C/C=C/C=C/1C [Temsirolimus, temsirolimus] | palliative success | – | – | – | – |
| CO[C@H]1C[C@@H]2CC[C@@H](C)[C@@](O)(O2)C(=O)C(=O)N2CCCC[C@H]2C(=O)O[C@H]([C@H](C)C[C@@H]2CC[C@@H](O)[C@H](OC)C2)CC(=O)[C@H](C)/C=C(\C)[C@@H](O)[C@@H](OC)C(=O)[C@H](C)C[C@H](C)/C=C/C=C/C=C/1C [rapamycin] | – | 80 | 2.0±1.2 | 1.2±0.9 | 2.8±1.4 |
